Measured values published in patent US9346810B2, “Pyrrolopyrimidine compounds and uses thereof” (HUTCHISON MEDIPHARMA LIMITED, priority 2010, dated 2016).

Tests used:
Format in all cases: biochemical
[1] = molecular target: Recombinant human JAK1 catalytic domain (Homo sapiens (Human), UniProt P23458); assay: JAK1 kinase assay (Z'-LYTE, Tyr 6 Peptide); details: read-out: IC50 in JAK1 kinase assay
Experimental: (§1) JAK1/2/3 kinase assay are performed in vitro using Kit-Tyr 6 Peptide (Invitrogen, Cat. No. PV4122). TYK2 kinase assay are performed in vitro using Z′-LYTE™ Kinase Assay Kit-Tyr 3 Peptide (Invitrogen, Cat. No. PV3192). […] All compounds are initially tested at 8 different concentrations (1 μM down to 0.0003 μM) using a 1:3 serial dilution scheme.

[2] = molecular target: Recombinant human JAK2 catalytic domain (Homo sapiens (Human), UniProt O60674); assay: JAK2 kinase assay (Z'-LYTE, Tyr 6 Peptide); details: read-out: IC50 in JAK2 kinase assay
Recombinant human JAK2 catalytic domain, sequence (O60674 849-1124): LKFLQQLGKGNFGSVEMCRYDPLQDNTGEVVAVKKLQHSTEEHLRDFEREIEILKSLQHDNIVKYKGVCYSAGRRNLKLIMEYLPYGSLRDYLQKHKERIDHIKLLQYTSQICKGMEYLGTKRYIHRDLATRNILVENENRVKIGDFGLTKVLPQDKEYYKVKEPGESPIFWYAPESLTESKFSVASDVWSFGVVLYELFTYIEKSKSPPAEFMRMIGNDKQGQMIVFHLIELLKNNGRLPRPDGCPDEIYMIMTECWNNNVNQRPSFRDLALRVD
Experimental: as §1

[3] = molecular target: Recombinant human JAK3 catalytic domain (Homo sapiens (Human), UniProt P52333); assay: JAK3 kinase assay (Z'-LYTE, Tyr 6 Peptide); details: read-out: IC50 in JAK3 kinase assay
Recombinant human JAK3 catalytic domain, sequence (P52333 822-1111): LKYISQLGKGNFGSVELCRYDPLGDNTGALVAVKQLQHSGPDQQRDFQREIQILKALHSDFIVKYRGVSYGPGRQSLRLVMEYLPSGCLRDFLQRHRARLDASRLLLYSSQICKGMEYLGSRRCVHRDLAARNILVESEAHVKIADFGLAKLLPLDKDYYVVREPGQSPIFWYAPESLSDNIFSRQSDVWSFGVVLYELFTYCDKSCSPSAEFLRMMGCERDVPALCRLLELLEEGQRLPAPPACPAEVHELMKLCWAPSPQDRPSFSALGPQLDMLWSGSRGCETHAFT
Experimental: as §1

Recombinant human JAK1 catalytic domain, sequence (P23458 875-1153): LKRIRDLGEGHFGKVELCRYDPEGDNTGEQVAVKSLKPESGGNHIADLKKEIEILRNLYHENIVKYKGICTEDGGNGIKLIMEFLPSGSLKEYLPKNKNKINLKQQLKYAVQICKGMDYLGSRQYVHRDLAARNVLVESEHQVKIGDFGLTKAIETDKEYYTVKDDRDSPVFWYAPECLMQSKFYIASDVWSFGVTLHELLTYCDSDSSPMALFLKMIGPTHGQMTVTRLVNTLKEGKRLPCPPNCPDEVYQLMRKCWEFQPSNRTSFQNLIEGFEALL

Compound	IC50 [1]	IC50 [2]	IC50 [3]
CN(c1ccc(Cl)cn1)[C@@H]1CCN(c2ncnc3[nH]ccc23)C1 [Compound 67]	1 to 100 nM	1 to 100 nM	1 to 100 nM
Cc1cc(N(C)[C@@H]2CCN(c3ncnc4[nH]ccc34)C2)ncc1[N+](=O)[O-] [Compound 77]	1 to 100 nM	100 to 1000 nM	100 to 1000 nM
COc1cc2ncnc(N(C)[C@@H]3CCN(c4ncnc5[nH]ccc45)C3)c2cc1OC [Compound 86]	1 to 100 nM	1 to 100 nM	100 to 1000 nM
CN(c1ccc(C#N)cc1)[C@@H]1CCN(c2ncnc3[nH]ccc23)C1 [Compound 104]	1 to 100 nM	1 to 100 nM	100 to 1000 nM
CN(c1ccnc(C#N)c1)[C@@H]1CCN(c2ncnc3[nH]ccc23)C1 [Compound 121]	1 to 100 nM	1 to 100 nM	1 to 100 nM
CN(c1ccc(S(=O)(=O)NC2CC2)cn1)[C@@H]1CCN(c2ncnc3[nH]ccc23)C1 [Compound 236]	1 to 100 nM	1 to 100 nM	1 to 100 nM
